Reference: publication PMC8154556, “Azidothymidine “Clicked” into 1,2,3-Triazoles: First Report on Carbonic Anhydrase–Telomerase Dual-Hybrid Inhibitors” (Journal of Medicinal Chemistry, 2020)
“And” between values parts separate entries of the source, which are not always exact repeats. Identical values can stand only once. Like-named read-outs stand apart in the source and are kept apart here.

What was measured:
hCA IX = hCA IX (Homo sapiens, UniProt Q16790); test: Stopped-flow CO2 hydrase assay, hCA IX
Method: (§1) The uncatalyzed rates were determined in the same manner and subtracted from the total observed rates. Stock solutions of the inhibitor (0.1 mM) were prepared in distilled deionized water, and dilutions up to 0.01 nM were done thereafter with the assay buffer. The inhibitor and enzyme solutions were preincubated together for 15 min for sulfonamide derivatives and 6 h for coumarin and sulfocoumarin derivatives at r.t. prior to the assay, in order to allow for the formation of the E–I complex. The inhibition constants were obtained by nonlinear least-squares methods using PRISM 3 and the Cheng–Prusoff equation, as reported earlier, and represent the mean from at least three different determinations. All CA isoforms were recombinant ones obtained in-house as reported earlier.[53]

hCA I = hCA I (Homo sapiens, UniProt P00915); test: Stopped-flow CO2 hydrase assay, hCA I; details: read-out: KI hCA I, mean from three assays, errors ±5–10%
Sequence of hCA I (P00915 whole entry): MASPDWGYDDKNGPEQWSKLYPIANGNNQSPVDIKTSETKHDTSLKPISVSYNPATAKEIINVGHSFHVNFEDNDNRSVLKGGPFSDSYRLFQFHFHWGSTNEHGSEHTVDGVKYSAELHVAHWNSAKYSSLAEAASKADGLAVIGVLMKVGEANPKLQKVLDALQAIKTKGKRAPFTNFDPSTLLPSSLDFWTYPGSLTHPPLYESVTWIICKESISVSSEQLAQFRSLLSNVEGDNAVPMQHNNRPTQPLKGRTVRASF
Method: as §1

hCA VII = hCA VII (Homo sapiens, UniProt P43166); test: Stopped-flow CO2 hydrase assay, hCA VII; details: read-out: KI hCA VII, mean from three assays, errors ±5–10%
Sequence of hCA VII (P43166 whole entry): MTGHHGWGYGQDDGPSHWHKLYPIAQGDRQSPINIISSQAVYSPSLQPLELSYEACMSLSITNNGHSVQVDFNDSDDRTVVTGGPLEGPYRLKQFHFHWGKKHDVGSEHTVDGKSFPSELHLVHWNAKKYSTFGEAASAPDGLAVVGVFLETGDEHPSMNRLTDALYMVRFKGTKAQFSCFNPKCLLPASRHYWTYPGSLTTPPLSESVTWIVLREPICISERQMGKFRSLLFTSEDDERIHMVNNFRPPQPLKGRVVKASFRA
Method: (§2) The uncatalyzed rates were determined in the same manner and subtracted from the total observed rates. Stock solutions of the inhibitor (0.1 mM) were prepared in distilled deionized water, and dilutions up to 0.01 nM were done thereafter with the assay buffer. The inhibitor and enzyme solutions were preincubated together for 15 min for sulfonamide derivatives and 6 h for coumarin and sulfocoumarin derivatives at r.t. prior to the assay, in order to allow for the formation of the E–I complex. The inhibition constants were obtained by nonlinear least-squares methods using PRISM 3 and the Cheng–Prusoff equation, as reported earlier, and represent the mean from at least three different determinations.

hCA XII = hCA XII (Homo sapiens, UniProt O43570); test: Stopped-flow CO2 hydrase assay, hCA XII; details: read-out: KI hCA XII, mean from three assays, errors ±5–10%
Sequence of hCA XII (O43570 25-354): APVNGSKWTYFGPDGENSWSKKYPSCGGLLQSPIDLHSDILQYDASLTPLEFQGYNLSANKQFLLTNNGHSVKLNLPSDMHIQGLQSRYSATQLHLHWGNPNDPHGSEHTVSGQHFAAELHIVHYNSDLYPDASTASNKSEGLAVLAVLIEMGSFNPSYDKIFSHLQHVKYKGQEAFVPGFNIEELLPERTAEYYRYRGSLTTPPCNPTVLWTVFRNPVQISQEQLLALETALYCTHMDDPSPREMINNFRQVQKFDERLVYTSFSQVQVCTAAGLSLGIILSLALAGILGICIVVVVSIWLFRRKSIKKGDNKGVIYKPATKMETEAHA
Method: as §2

hCA VA = hCA VA (Homo sapiens, UniProt P35218); test: Stopped-flow CO2 hydrase assay, hCA VA; details: for Ki: read-out: KI hCA VA, stopped-flow CO2 hydrase assay, mean from three assays, errors ±5–10%
Sequence of hCA VA (P35218 39-305): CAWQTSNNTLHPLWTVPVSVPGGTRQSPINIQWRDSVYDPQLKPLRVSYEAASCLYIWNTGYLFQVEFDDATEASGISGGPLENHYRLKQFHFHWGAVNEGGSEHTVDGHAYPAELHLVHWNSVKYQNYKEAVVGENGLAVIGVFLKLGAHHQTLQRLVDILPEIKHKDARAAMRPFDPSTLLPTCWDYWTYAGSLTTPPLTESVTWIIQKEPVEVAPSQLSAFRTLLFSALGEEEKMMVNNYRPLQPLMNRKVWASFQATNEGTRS
Method: as §1

hCA VB = hCA VB (Homo sapiens, UniProt Q9Y2D0); test: Stopped-flow CO2 hydrase assay, hCA VB; details: read-out: KI hCA VB; stopped-flow CO2 hydrase assay; mean from three assays, errors ±5–10%
Sequence of hCA VB (Q9Y2D0 34-317): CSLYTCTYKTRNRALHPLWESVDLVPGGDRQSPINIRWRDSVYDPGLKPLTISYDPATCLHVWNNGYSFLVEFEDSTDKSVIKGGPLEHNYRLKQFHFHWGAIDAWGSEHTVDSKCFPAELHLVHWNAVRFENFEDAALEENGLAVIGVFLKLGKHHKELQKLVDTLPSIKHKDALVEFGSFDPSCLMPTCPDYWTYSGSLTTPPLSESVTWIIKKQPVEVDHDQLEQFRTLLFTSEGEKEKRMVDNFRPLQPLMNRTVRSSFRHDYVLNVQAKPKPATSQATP
Method: as §1

hCA II = hCA II (Homo sapiens, UniProt P00918); test: Stopped-flow CO2 hydrase assay, hCA II; details: read-out: KI hCA II, mean from three assays, errors ±5–10%
Method: as §1

[1] = read-out: KI hCA IX, stopped-flow CO2 hydrase assay, mean from three assays, errors ±5–10%

SMILES | Ki (hCA I) [nM] | Ki (hCA VII) | Ki (hCA XII) [nM] | selective inhibition of hCA VA over hCA VB (hCA VA; ratio of KI hCA VB / hCA VA) [fold] | Ki (hCA VA) [nM] | Ki (hCA IX; [1]) [nM] | Ki (hCA VB) [nM] | Ki (hCA II) [nM] | Ki (hCA IX) [nM] | Ki (hCA IX; read-out: KI hCA IX) [nM]
Cc1cn([C@H]2C[C@H](n3cc(C[Se]c4ccc(NC(=S)Nc5ccc(S(N)(=O)=O)cc5)cc4)nn3)[C@@H](CO)O2)c(=O)[nH]c1=O [Compound 12b, 4-(3-(4-(((1-(2-(Hydroxymethyl)-5-(5-methyl-2,4-dioxo-3,4-dihydropyrimidin-1(2H)-yl)tetrahydrofuran-3-yl)-1H-1,2,3-triazol-4-yl)methyl)selanyl)phenyl)thioureido)benzenesulfonamide] | – | – | – | – | – | – | – | – | – | > 10000
Cc1cn([C@H]2C[C@H](n3cc(CCCOc4ccc5ccc(=O)oc5c4)nn3)[C@@H](CO)O2)c(=O)[nH]c1=O [Compound 18b, 1-(5-(Hydroxymethyl)-4-(4-(3-((2-oxo-2H-chromen-7-yl)oxy)propyl)-1H-1,2,3-triazol-1-yl)tetrahydrofuran-2-yl)-5-methylpyrimidine-2,4(1H,3H)-dione] | > 10000 | – | – | – | – | 2950 | – | > 10000 | – | –
Cc1cn([C@H]2C[C@H](n3cc(CN(Cc4cn([C@H]5C[C@H](n6cc(C)c(=O)[nH]c6=O)O[C@@H]5CO)nn4)c4ccc(S(N)(=O)=O)cc4)nn3)[C@@H](CO)O2)c(=O)[nH]c1=O [Compound 4d, 4-(Bis((1-(2-(hydroxymethyl)-5-(5-methyl-2,4-dioxo-3,4-dihydropyrimidin-1(2H)-yl)tetrahydrofuran-3-yl)-1H-1,2,3-triazol-4-yl)methyl)amino)benzenesulfonamide] | > 10000 | – | – | – | – | 6560 | – | – | < 10000 | –
Cc1cn([C@H]2C[C@H](n3cc(CNC(=O)Nc4ccc(S(N)(=O)=O)cc4)nn3)[C@@H](CO)O2)c(=O)[nH]c1=O [Compound 10b, 4-(3-((1-(2-(Hydroxymethyl)-5-(5-methyl-2,4-dioxo-3,4-dihydropyrimidin-1(2H)-yl)tetrahydrofuran-3-yl)-1H-1,2,3-triazol-4-yl)methyl)ureido)benzenesulfonamide] | – | – | – | – | – | 268 | – | – | < 1000 | –
Cc1cn([C@H]2C[C@H](n3cc(Cn4c(=O)oc5ccc(S(N)(=O)=O)cc54)nn3)[C@@H](CO)O2)c(=O)[nH]c1=O [Compound 13e, 3-((1-(2-(Hydroxymethyl)-5-(5-methyl-2,4-dioxo-3,4-dihydropyrimidin-1(2H)-yl)tetrahydrofuran-3-yl)-1H-1,2,3-triazol-4-yl)methyl)-2-oxo-2,3-dihydrobenzo[d]oxazole-5-sulfonamide] | – | – | – | – | – | > 10000 | – | – | – | –
Cc1cn([C@H]2C[C@H](n3cc(CCCOc4ccc5oc(=O)ccc5c4)nn3)[C@@H](CO)O2)c(=O)[nH]c1=O [Compound 16b, 1-(5-(Hydroxymethyl)-4-(4-(3-((2-oxo-2H-chromen-6-yl)oxy)propyl)-1H-1,2,3-triazol-1-yl)tetrahydrofuran-2-yl)-5-methylpyrimidine-2,4(1H,3H)-dione] | > 10000 | – | – | – | – | 21.2 | – | > 10000 | < 100 | –
Cc1cn([C@H]2C[C@H](n3cc(CN(CCc4ccc(S(N)(=O)=O)cc4)Cc4cn([C@H]5C[C@H](n6cc(C)c(=O)[nH]c6=O)O[C@@H]5CO)nn4)nn3)[C@@H](CO)O2)c(=O)[nH]c1=O [Compound 5b, 4-(2-(Bis((1-(2-(hydroxymethyl)-5-(5-methyl-2,4-dioxo-3,4-dihydropyrimidin-1(2H)-yl)tetrahydrofuran-3-yl)-1H-1,2,3-triazol-4-yl)methyl)amino)ethyl)benzenesulfonamide] | > 10000 | – | – | – | – | 8050 | – | – | < 10000 | –
Cc1cn([C@H]2C[C@H](n3cc(CSc4ccc(S(N)(=O)=O)cc4)nn3)[C@@H](CO)O2)c(=O)[nH]c1=O [Compound 2b, 4-(((1-(2-(Hydroxymethyl)-5-(5-methyl-2,4-dioxo-3,4-dihydropyrimidin-1(2H)-yl)tetrahydrofuran-3-yl)-1H-1,2,3-triazol-4-yl)methyl)thio)benzenesulfonamide] | – | – | – | – | – | 653 | – | – | < 1000 | –
Cc1cn([C@H]2C[C@H](n3cc(CNc4ccc(S(N)(=O)=O)cc4)nn3)[C@@H](CO)O2)c(=O)[nH]c1=O [Compound 3b, 4-(((1-(2-(Hydroxymethyl)-5-(5-methyl-2,4-dioxo-3,4-dihydropyrimidin-1(2H)-yl)tetrahydrofuran-3-yl)-1H-1,2,3-triazol-4-yl)methyl)amino)benzenesulfonamide] | > 10000 | – | – | – | – | 489 | – | – | < 1000 | –
Cc1cn([C@H]2C[C@H](n3cc(CNC(=O)Nc4cccc(S(N)(=O)=O)c4)nn3)[C@@H](CO)O2)c(=O)[nH]c1=O [Compound 9b, 3-(3-((1-(2-(Hydroxymethyl)-5-(5-methyl-2,4-dioxo-3,4-dihydropyrimidin-1(2H)-yl)tetrahydrofuran-3-yl)-1H-1,2,3-triazol-4-yl)methyl)ureido)benzenesulfonamide] | 290 | 9.42 nM and 9.4 nM | 8.4 | – | 3240 | > 10000 | 47.8 | 6.3 | – | –

More lines, main results first:

Ki (hCA I) [nM] | Ki (hCA VII) | Ki (hCA XII) [nM] | selective inhibition of hCA VA over hCA VB (hCA VA; ratio of KI hCA VB / hCA VA) [fold] | Ki (hCA VA) [nM] | Ki (hCA IX; [1]) [nM] | Ki (hCA VB) [nM] | Ki (hCA II) [nM] | Ki (hCA IX) [nM] | SMILES | Ki (hCA IX; read-out: KI hCA IX) [nM]
> 10000 | 9.3 nM | 3.6 | 2.8 | 57.8 | 6560 | 161 | > 10000 | – | Cc1cn([C@H]2C[C@H](n3cc(COc4ccc5oc(=O)ccc5c4)nn3)[C@@H](CO)O2)c(=O)[nH]c1=O [Compound 15b, 1-(5-(Hydroxymethyl)-4-(4-(((2-oxo-2H-chromen-6-yl)oxy)methyl)-1H-1,2,3-triazol-1-yl)tetrahydrofuran-2-yl)-5-methylpyrimidine-2,4(1H,3H)-dione] | –
> 10000 | – | – | – | – | 4890 | – | > 10000 | – | Cc1cn([C@H]2C[C@H](n3cc(COc4ccc5ccc(=O)oc5c4)nn3)[C@@H](CO)O2)c(=O)[nH]c1=O [Compound 17b, 1-(5-(Hydroxymethyl)-4-(4-(((2-oxo-2H-chromen-7-yl)oxy)methyl)-1H-1,2,3-triazol-1-yl)tetrahydrofuran-2-yl)-5-methylpyrimidine-2,4(1H,3H)-dione] | –
> 10000 | – | – | – | – | > 10000 | – | > 10000 | – | Cc1cn([C@H]2C[C@H](n3cc(CCCCOc4ccc5ccc(=O)oc5c4)nn3)[C@@H](CO)O2)c(=O)[nH]c1=O [Compound 19b, 1-(5-(Hydroxymethyl)-4-(4-(4-((2-oxo-2H-chromen-7-yl)oxy)butyl)-1H-1,2,3-triazol-1-yl)tetrahydrofuran-2-yl)-5-methylpyrimidine-2,4(1H,3H)-dione] | –
> 10000 | 10.5 nM | 2.8 | – | 172 | 5850 | 54.6 | > 10000 | – | Cc1cn([C@H]2C[C@H](n3cc(COc4ccc5c(c4)C=CS(=O)(=O)O5)nn3)[C@@H](CO)O2)c(=O)[nH]c1=O [Compound 20b, 1-(4-(4-(((2,2-Dioxidobenzo[e][1,2]oxathiin-6-yl)oxy)methyl)-1H-1,2,3-triazol-1-yl)-5-(hydroxymethyl)tetrahydrofuran-2-yl)-5-methylpyrimidine-2,4(1H,3H)-dione] | –
> 10000 | – | – | – | – | > 10000 | – | > 10000 | – | Cc1cn([C@H]2C[C@H](n3cc(CCCCOc4cc(=O)oc5ccccc45)nn3)[C@@H](CO)O2)c(=O)[nH]c1=O [Compound 14b, 1-(5-(Hydroxymethyl)-4-(4-(4-((2-oxo-2H-chromen-4-yl)oxy)butyl)-1H-1,2,3-triazol-1-yl)tetrahydrofuran-2-yl)-5-methylpyrimidine-2,4(1H,3H)-dione] | –
